Values after ≈ are worked out from the molar mass of the structure shown. Where two headings read alike, the source gives them in different places.
Assays:
[1] = tested on: A. baumannii strain 5075 (AB5075); experiment: Broth microdilution MIC determination of compound alone; format: cell-based; conditions: Acinetobacter baumannii
Outline: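 MIC by twofold serial dilution in cation-adjusted Mueller-Hinton broth, inoculum 5×10^5 CFU/mL from 6 h day cultures, top concentration 200 μM (64 μg/mL). Incubated stationary at 37° C. for 16 hours; MIC taken as lowest concentration with no visible growth.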

[2] = tested on: A. baumannii strain 5075; experiment: Time kill curve; format: cell-based, Acinetobacter baumannii; conditions: for growth similar to the control after: AB5075, time kill curve; for Initial toxicity seen until (time point): AB5075 growth, time kill curve
Procedure: A. baumannii strain 5075 was grown in the presence of compound 1 at either 20 μM or 30 μM, and samples were plated at 2, 4, 6, 8, and 24 hour time points. Initial toxicity was seen until the 4-hour time point for 20 μM and 8-hour time point for 30 μM; however, growth was similar to the control after 6 hours for 20 μM and 24 hours for 30 μM.
A. baumannii 5075 was grown overnight (16 hours) in CAMHB at 37° C. with shaking. This culture was then subcultured to 5×10^5 CFU/mL in fresh CAMHB. The inoculated media was aliquoted (3 mL) into culture tubes, and the compound was added from 100 mM stock solutions. Untreated inoculated culture tubes served as the control, and tubes were incubated at 37° C. with shaking. Samples were taken at 2, 4, 6, 8, and 24 hour time points and were serially diluted in fresh CAMHB and plated on LB agar. Plates were incubated under stationary conditions overnight at 37° C. After incubation, colonies were enumerated and growth curves were constructed.

[3] = tested on: AB5075; experiment: Checkerboard assay for FIC determination with colistin; format: cell-based, Acinetobacter baumannii; conditions: chequerboard, ΣFIC≥2 considered antagonistic
Procedure: Against AB5075, we determined that the ΣFIC with compound 1 to be 17 and the ΣFIC with compound 10 to be 33. These ΣFIC values indicate that both compounds are highly antagonistic with colistin as a ΣFIC≥2 is considered antagonistic.
Day Cultures (6 h) of A. baumannii 5075 were subcultured to 5×10^5 CFU/mL in cation adjusted Mueller-Hinton broth (CAMHB). 100 μL of the inoculated media was distributed into all wells of a 96-well plate except well 1A. Inoculated CAMHB (200 μL) containing compound (twice the highest concentration tested) was added to well 1A, and 100 μL of the same sample was added to wells 2A-12A. The contents in column A were mixed five times before 100 μL was transferred to column B. The contents of column B were mixed 5 times before transferring to column C. This process was repeated with the remainder of the columns up to column G. Column H was not mixed to allow determination of the antibiotic MIC alone. […] Row 12 was not mixed so that the MIC of the compound alone could be determined. The MICs of both compound and antibiotic alone were recorded, as well as the wells containing the combination. The ΣFICs were calculated as follows: ΣFIC=FIC (Compound)+FIC (antibiotic), where FIC (compound) is the MIC of the compound in the combination/MIC of the compound alone and the FIC (antibiotic) is the MIC of the antibiotic in combination/the MIC of the antibiotic alone. […]

[4] = tested on: AB5075; experiment: H33342 accumulation assay (efflux); format: cell-based, Acinetobacter baumannii
Procedure: In addition to the evaluation of the relationship between compounds 1 and 4 and colistin, the impact of compound 1 on efflux was evaluated using AB5075 and a bisBenzimide H33342 trihydrochloride (H33342) accumulation assay. Using a procedure adapted from Coldham et al. (A 96-well plate fluorescence assay for assessment of cellular permeability and active efflux in Salmonella enterica serovar Typhimurium and Escherichia coli. J Antimicrob Chemother, 2010. 65(8): p. 1655-63) and Richmond et al. (Efflux in Acinetobacter baumannii can be determined by measuring accumulation of H33342 (bis-benzamide). J Antimicrob Chemother, 2013. 68(7): p. 1594-600), the effect of no treatment, a known inhibitor carbonyl cyanide-m-chlorophenyl hydrazone (CCCP), and compound 1 on efflux was analyzed over 30 minutes and in two different treatment variations. Fluorescence was read using excitation and emission filters of 355 and 460 nm, and the values were processed in excel. The first analysis was performed immediately after treating the bacteria with compound 1 at both 10 and 30 μM and CCCP at 25 μM.
The second analysis was performed after exposing the bacteria to compound 1 at 30 μM for 5-hours shaking at 37° C.

[5] = tested on: AB5075; experiment: G. mellonella model infected with AB5075, survival; format: in vivo, Galleria mellonella
Procedure: Galleria mellonella larvae (Speedy Worm, Alexandria, Minn.) were used within ten days of shipment from the vendor. After reception of worms, larvae were kept in the dark at room temperature for at least 24 h before infection. Larvae weighing between 200 to 300 mg were used in the survival assay. Using a 10 μL glass syringe (Hamilton, Reno, Nev.) fitted with a 30 G needle (Exel International, St. Petersburg, Fl), 5 μL of the desired compound and concentration were injected into the last left proleg. After 2.5 h, a second 5 μL injection containing 6×10^5 CFU of Acinetobacter baumannii 5075 was injected into the second to last left proleg. Injected worms were left at room temperature in the dark while being assessed at 24 h intervals over 6 days. […] Experiment was repeated 7 times using 10 larvae per experimental group.

Nc1nc(-c2ccc(NC(=O)c3cc(Cl)cc(Cl)c3)cc2)c[nH]1 [Compound 1]
MIC [1]: 100 µM (≈ 34.7 µg/mL)
growth similar to the control after ([2]; compound alone at 20 μM): 6 h
Initial toxicity seen until (time point) ([2]; compound alone at 20 μM): 4 h
growth similar to the control after ([2]; compound alone at 30 μM): 24 h
Initial toxicity seen until (time point) ([2]; compound alone at 30 μM): 8 h
ΣFIC with colistin [3]: 17
H33342 accumulation, fluorescence at 355 and 460 nm ([4]; 10 μM compound, immediately following exposure, time 0 minutes): 14,084.3 ± 2,839.3
H33342 accumulation, fluorescence at 355 and 460 nm ([4]; 10 μM compound, immediately following exposure, time 10 minutes): 12,812.4 ± 2,718.2
H33342 accumulation, fluorescence at 355 and 460 nm ([4]; 10 μM compound, immediately following exposure, time 20 minutes): 11,627.8 ± 3,119
H33342 accumulation, fluorescence at 355 and 460 nm ([4]; 10 μM compound, immediately following exposure, time 30 minutes): 12,147.8 ± 2,742.8
H33342 accumulation, fluorescence at 355 and 460 nm ([4]; 30 μM compound, following exposure for 5 hours, time 0 minutes): 12,226.7 ± 4,671.7
H33342 accumulation, fluorescence at 355 and 460 nm ([4]; 30 μM compound, following exposure for 5 hours, time 10 minutes): 15,247 ± 5,499.3
H33342 accumulation, fluorescence at 355 and 460 nm ([4]; 30 μM compound, following exposure for 5 hours, time 20 minutes): 25,603.1 ± 5,212.9
H33342 accumulation, fluorescence at 355 and 460 nm ([4]; 30 μM compound, following exposure for 5 hours, time 30 minutes): 33,441.1 ± 3,260.3
H33342 accumulation, fluorescence at 355 and 460 nm ([4]; 30 μM compound, immediately following exposure, time 0 minutes): 21,152.2 ± 5,161.7
H33342 accumulation, fluorescence at 355 and 460 nm ([4]; 30 μM compound, immediately following exposure, time 10 minutes): 21,651 ± 8,731.7
H33342 accumulation, fluorescence at 355 and 460 nm ([4]; 30 μM compound, immediately following exposure, time 20 minutes): 19,748.3 ± 9,182.4
H33342 accumulation, fluorescence at 355 and 460 nm ([4]; 30 μM compound, immediately following exposure, time 30 minutes): 19,562.4 ± 9,574
H33342 fluorescence versus untreated ([4]; after exposure to compound at 30 μM for 5 hours): comparable fluorescence values
change in H33342 fluorescence over 30 minutes ([4]; immediately after treating, compound 1 at both 10 and 30 μM, CCCP at 25 μM): a decrease in fluorescence
survival rate after 6 days ([5]; combination treatment of clarithromycin (25 mg/kg) and compound 1 (100 mg/kg)): 42%
survival after 6 days ([5]; compound 1 alone at 100 mg/kg): 5%

Nc1nc(-c2ccc(NC(=O)c3cc(Br)cc(Br)c3)cc2)c[nH]1 [Compound 4]
MIC ([1]; compound alone, AB5075, read-out: MIC): 100 µM (≈ 43.6 µg/mL)
